Measurements reported in patent publication US10681909B2, “Herbicidal triazoles” (FMC Corporation, priority 2014, dated 2020).

Assays:
galium = assay: Test A postemergence; format: in vivo, Galium aparine; details: 0 to 100 scale (0 no effect, 100 complete control), approx. 10 d
How it was run: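 Weed and crop species in loam–sand blend sprayed preemergence on soil or postemergence at 2–10 cm, one- to two-leaf stage, with chemicals in surfactant-containing solvent. Injury rated visually after ~10 d in greenhouse versus untreated controls on a 0–100 scale (100 = complete control).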

foxtail, giant = assay: Test C preemergence; format: in vivo, Setaria faberii; details: for Plant response rating (scale of 0 to 100 where 0 is no effect and 100 is complete control): Foxtail, Giant, preemergence; for Foxtail, Giant plant response rating (0 to 100): Preemergence, visual rating after 13 to 15 d
Excerpt: (§1) Seeds of plant species selected from blackgrass (Alopecurus myosuroides), ryegrass, Italian (Italian ryegrass, Lolium multiflorum), wheat (winter wheat, Triticum aestivum), galium (catchweed bedstraw, Galium aparine), corn (Zea mays), crabgrass, large (large crabgrass, Digitaria sanguinalis), foxtail, giant, (giant foxtail, Setaria faberii), johnsongrass (Sorghum halepense), lambsquarters (Chenopodium album), morningglory (Ipomoea coccinea), nutsedge, yellow (yellow nutsedge, Cyperus esculentus), pigweed (Amaranthus retroflexus), ragweed (common ragweed, Ambrosia elatior), soybean (Glycine max), barnyardgrass (Echinochloa crus-galli), oilseed rape (Brassica napus), waterhemp (common waterhemp, Amaranthus rudis), and velvetleaf (Abutilon theophrasti) were planted into a blend of loam soil and sand and treated preemergence with test chemicals formulated in a non-phytotoxic solvent mixture which included a surfactant. At the same time, plants selected from these crop and weed species and also chickweed (common chickweed, Stellaria media), oat, wild (wild oat, Avena fatua), and kochia (Kochia scoparia), were planted in pots containing Sunshine Redi-Earth® planting medium comprising spaghnum peat moss, vermiculite, starter nutrients and dolomitic limestone and treated with postemergence applications of test chemicals formulated in the same manner. Plants ranged in height from 2 to 18 cm (1- to 4-leaf stage) for postemergence treatments. […] A dash (-) response means no test result.

johnsongrass = assay: Test C preemergence; format: in vivo, Sorghum halepense; details: for Plant response rating (scale of 0 to 100 where 0 is no effect and 100 is complete control): Johnsongrass, preemergence; for Johnsongrass plant response rating (0 to 100): Preemergence, visual rating after 13 to 15 d
Excerpt: as §1

soybean = assay: Test C preemergence; format: in vivo, Glycine max; details: for Soybean plant response rating (0 to 100): Preemergence, visual rating after 13 to 15 d; for Plant response rating (scale of 0 to 100 where 0 is no effect and 100 is complete control): Soybean, preemergence, 250 g ai/ha
Excerpt: as §1

bromegrass, down [1] = assay: Test D preemergence; format: in vivo, Bromus tectorum; details: for Plant response rating (0 to 100), Bromegrass, Down: 16 g ai/ha, 0 is no effect, 100 is complete control; for Plant response rating: Bromegrass, Down: scale 0 to 100
Excerpt: (§2) Seeds of plant species selected from bluegrass (annual bluegrass, Poa annua), blackgrass (Alopecurus myosuroides), canarygrass (Phalaris minor), chickweed (common chickweed, Stellaria media), galium (catchweed bedstraw, Galium aparine), bromegrass, down (downy bromegrass, Bromus tectorum), Russian thistle (Salsola kali), field poppy (Papaver rhoeas), field violet (Viola arvensis), foxtail, green (green foxtail, Setaria viridis), deadnettle (henbit deadnettle, Lamium amplexicaule), ryegrass, Ital. (Italian ryegrass, Lolium multiflorum), kochia (Kochia scoparia), lambsquarters (Chenopodium album), oilseed rape (Brassica napus), pigweed (Amaranthus retroflexus), chamomile (scentless chamomile, Matricaria inodora), speedwell (bird's-eye speedwell, Veronica persica), barley, spring (spring barley, Hordeum vulgare), wheat, spring (spring wheat, Triticum aestivum), buckwheat, wild (wild buckwheat, Polygonum convolvulus), wild mustard (Sinapis arvensis), oat, wild (wild oat, Avena fatua), radish, wild (wild radish, Raphanus raphanistrum), […]), barley, winter (winter barley, Hordeum vulgare), and wheat, winter (winter wheat, Triticum aestivum) were planted into a silt loam soil and treated preemergence with test chemicals formulated in a non-phytotoxic solvent mixture which included a surfactant. At the same time, these species were planted in pots containing Sunshine Redi-Earth® planting medium comprising spaghnum peat moss, vermiculite, starter nutrients and dolomitic limestone and treated with postemergence applications of the test chemicals formulated in the same manner. Plants ranged in height from 2 to 18 cm (1- to 4-leaf stage). Treated plants and controls were maintained in a controlled growth environment for 14 to 21 d after which time all species were compared to controls and visually evaluated. […] A dash (-) response means no test result.

Russian thistle = assay: Test D preemergence; format: in vivo, Salsola kali; details: for Plant response rating (0 to 100), Russian Thistle: 16 g ai/ha, 0 is no effect, 100 is complete control; for Plant response rating: Russian Thistle: scale 0 to 100
Excerpt: as §2

speedwell = assay: Test D preemergence; format: in vivo, Veronica persica; details: for Plant response rating (0 to 100), Speedwell: 16 g ai/ha, 0 is no effect, 100 is complete control; for Plant response rating: Speedwell: scale 0 to 100
Excerpt: as §2

barley, spring = assay: Test D preemergence; format: in vivo, Hordeum vulgare; details: for Plant response rating (0 to 100), Barley, Spring: 16 g ai/ha, 0 is no effect, 100 is complete control; for Plant response rating: Barley, Spring: scale 0 to 100
Excerpt: as §2

barley, winter = assay: Test D preemergence; format: in vivo, Hordeum vulgare; details: for Plant response rating (0 to 100), Barley, Winter: 16 g ai/ha, 0 is no effect, 100 is complete control; for Plant response rating: Barley, Winter: scale 0 to 100
Excerpt: as §2

radish, wild [2] = assay: Test D preemergence; format: in vivo, Raphanus raphanistrum; details: for Plant response rating (0 to 100), Radish, Wild: 16 g ai/ha, 0 is no effect, 100 is complete control; for Plant response rating: Radish, Wild: scale 0 to 100
Excerpt: as §2

bromegrass, down [3] = assay: Test D postemergence; format: in vivo, Bromus tectorum; details: scale 0 to 100
Excerpt: as §2

lambsquarters = assay: Test D postemergence; format: in vivo, Chenopodium album; details: scale 0 to 100
Excerpt: as §2

radish, wild [4] = assay: Test D postemergence; format: in vivo, Raphanus raphanistrum; details: scale 0 to 100
Excerpt: as §2

## CCOc1nc(-c2ccc(C(F)(F)F)cc2)nn1Cc1ccnc(C(F)(F)F)c1 [Compound 35, 4-[[5-ethoxy-3-[4-(trifluoromethyl)phenyl]-1H-1,2,4-triazole-1-yl]methyl]-2-(trifluoromethyl)pyridine]
galium; 31 g ai/ha
  Plant response rating, Galium: 90
galium; 125 g ai/ha
  Plant response rating, Galium: 90
foxtail, giant; 125 g ai/ha
  Plant response rating (scale of 0 to 100 where 0 is no effect and 100 is complete control): 100
foxtail, giant; 250 g ai/ha
  Plant response rating (scale of 0 to 100 where 0 is no effect and 100 is complete control): 100
foxtail, giant; 31 g ai/ha
  Foxtail, Giant plant response rating (0 to 100): 98
foxtail, giant; 62 g ai/ha
  Foxtail, Giant plant response rating (0 to 100): 100
johnsongrass; 125 g ai/ha
  Plant response rating (scale of 0 to 100 where 0 is no effect and 100 is complete control): 95
johnsongrass; 250 g ai/ha
  Plant response rating (scale of 0 to 100 where 0 is no effect and 100 is complete control): 98
johnsongrass; 31 g ai/ha
  Johnsongrass plant response rating (0 to 100): 90
johnsongrass; 62 g ai/ha
  Johnsongrass plant response rating (0 to 100): 95
soybean; 31 g ai/ha
  Soybean plant response rating (0 to 100): 20
soybean; 62 g ai/ha
  Soybean plant response rating (0 to 100): 15
soybean
  Plant response rating (scale of 0 to 100 where 0 is no effect and 100 is complete control): 65
bromegrass, down [1]
  Plant response rating (0 to 100), Bromegrass, Down: 15
bromegrass, down [1]; 31 g ai/ha
  Plant response rating: Bromegrass, Down: 40
bromegrass, down [1]; 62 g ai/ha
  Plant response rating: Bromegrass, Down: 60
bromegrass, down [1]; 125 g ai/ha
  Plant response rating: Bromegrass, Down: 75
Russian thistle
  Plant response rating (0 to 100), Russian Thistle: 70
Russian thistle; 62 g ai/ha
  Plant response rating: Russian Thistle: 80
Russian thistle; 125 g ai/ha
  Plant response rating: Russian Thistle: 85
speedwell
  Plant response rating (0 to 100), Speedwell: 100
speedwell; 62 g ai/ha
  Plant response rating: Speedwell: 100
speedwell; 125 g ai/ha
  Plant response rating: Speedwell: 100
barley, spring
  Plant response rating (0 to 100), Barley, Spring: 30
barley, spring; 31 g ai/ha
  Plant response rating: Barley, Spring: 40
barley, spring; 62 g ai/ha
  Plant response rating: Barley, Spring: 40
barley, spring; 125 g ai/ha
  Plant response rating: Barley, Spring: 50
barley, winter
  Plant response rating (0 to 100), Barley, Winter: 25
barley, winter; 31 g ai/ha
  Plant response rating: Barley, Winter: 40
barley, winter; 62 g ai/ha
  Plant response rating: Barley, Winter: 40
barley, winter; 125 g ai/ha
  Plant response rating: Barley, Winter: 50
radish, wild [2]
  Plant response rating (0 to 100), Radish, Wild: 65
radish, wild [2]; 62 g ai/ha
  Plant response rating: Radish, Wild: 85
radish, wild [2]; 125 g ai/ha
  Plant response rating: Radish, Wild: 100
bromegrass, down [3]; 16 g ai/ha
  Plant response rating: Bromegrass, Down: 40
bromegrass, down [3]; 31 g ai/ha
  Plant response rating: Bromegrass, Down: 55
bromegrass, down [3]; 62 g ai/ha
  Plant response rating: Bromegrass, Down: 60
bromegrass, down [3]; 125 g ai/ha
  Plant response rating: Bromegrass, Down: 75
lambsquarters; 16 g ai/ha
  Plant response rating: Lambsquarters: 85
lambsquarters; 31 g ai/ha
  Plant response rating: Lambsquarters: 95
lambsquarters; 62 g ai/ha
  Plant response rating: Lambsquarters: 95
lambsquarters; 125 g ai/ha
  Plant response rating: Lambsquarters: 100
radish, wild [4]; 16 g ai/ha
  Plant response rating: Radish, Wild: 85
radish, wild [4]; 31 g ai/ha
  Plant response rating: Radish, Wild: 100
radish, wild [4]; 62 g ai/ha
  Plant response rating: Radish, Wild: 100
radish, wild [4]; 125 g ai/ha
  Plant response rating: Radish, Wild: 100

## CCOc1nc(-c2ccccc2)nn1Cc1ccnc(C(F)(F)F)c1 [Compound 27]
galium; 125 g ai/ha
  Plant response rating, Galium: 80
galium; 500 g ai/ha
  Plant response rating, Galium: 90
foxtail, giant; 125 g ai/ha
  Plant response rating (scale of 0 to 100 where 0 is no effect and 100 is complete control): 100
foxtail, giant; 250 g ai/ha
  Plant response rating (scale of 0 to 100 where 0 is no effect and 100 is complete control): 100
foxtail, giant; 31 g ai/ha
  Foxtail, Giant plant response rating (0 to 100): 100
foxtail, giant; 62 g ai/ha
  Foxtail, Giant plant response rating (0 to 100): 100
johnsongrass; 125 g ai/ha
  Plant response rating (scale of 0 to 100 where 0 is no effect and 100 is complete control): 80
johnsongrass; 250 g ai/ha
  Plant response rating (scale of 0 to 100 where 0 is no effect and 100 is complete control): 100
johnsongrass; 31 g ai/ha
  Johnsongrass plant response rating (0 to 100): 45
johnsongrass; 62 g ai/ha
  Johnsongrass plant response rating (0 to 100): 80
soybean; 31 g ai/ha
  Soybean plant response rating (0 to 100): 35
soybean; 62 g ai/ha
  Soybean plant response rating (0 to 100): 40
soybean
  Plant response rating (scale of 0 to 100 where 0 is no effect and 100 is complete control): 75
bromegrass, down [1]
  Plant response rating (0 to 100), Bromegrass, Down: 0
bromegrass, down [1]; 31 g ai/ha
  Plant response rating: Bromegrass, Down: 20
bromegrass, down [1]; 62 g ai/ha
  Plant response rating: Bromegrass, Down: 65
bromegrass, down [1]; 125 g ai/ha
  Plant response rating: Bromegrass, Down: 70
Russian thistle
  Plant response rating (0 to 100), Russian Thistle: 75
Russian thistle; 62 g ai/ha
  Plant response rating: Russian Thistle: 85
Russian thistle; 125 g ai/ha
  Plant response rating: Russian Thistle: 85
speedwell
  Plant response rating (0 to 100), Speedwell: 95
speedwell; 62 g ai/ha
  Plant response rating: Speedwell: 100
speedwell; 125 g ai/ha
  Plant response rating: Speedwell: 100
barley, spring
  Plant response rating (0 to 100), Barley, Spring: 25
barley, spring; 31 g ai/ha
  Plant response rating: Barley, Spring: 25
barley, spring; 62 g ai/ha
  Plant response rating: Barley, Spring: 35
barley, spring; 125 g ai/ha
  Plant response rating: Barley, Spring: 35
barley, winter
  Plant response rating (0 to 100), Barley, Winter: 15
barley, winter; 31 g ai/ha
  Plant response rating: Barley, Winter: 25
barley, winter; 62 g ai/ha
  Plant response rating: Barley, Winter: 30
barley, winter; 125 g ai/ha
  Plant response rating: Barley, Winter: 35
radish, wild [2]
  Plant response rating (0 to 100), Radish, Wild: 75
radish, wild [2]; 62 g ai/ha
  Plant response rating: Radish, Wild: 85
radish, wild [2]; 125 g ai/ha
  Plant response rating: Radish, Wild: 100
bromegrass, down [3]; 16 g ai/ha
  Plant response rating: Bromegrass, Down: 25
bromegrass, down [3]; 31 g ai/ha
  Plant response rating: Bromegrass, Down: 30
bromegrass, down [3]; 62 g ai/ha
  Plant response rating: Bromegrass, Down: 50
bromegrass, down [3]; 125 g ai/ha
  Plant response rating: Bromegrass, Down: 65
lambsquarters; 16 g ai/ha
  Plant response rating: Lambsquarters: 85
lambsquarters; 31 g ai/ha
  Plant response rating: Lambsquarters: 95
lambsquarters; 62 g ai/ha
  Plant response rating: Lambsquarters: 95
lambsquarters; 125 g ai/ha
  Plant response rating: Lambsquarters: 95
radish, wild [4]; 16 g ai/ha
  Plant response rating: Radish, Wild: 85
radish, wild [4]; 31 g ai/ha
  Plant response rating: Radish, Wild: 90
radish, wild [4]; 62 g ai/ha
  Plant response rating: Radish, Wild: 100
radish, wild [4]; 125 g ai/ha
  Plant response rating: Radish, Wild: 100
